67 compounds from PubChem BioAssay AID1902 (Broad Institute, 2009) can be followed below.

Active and inactive are the calls of the source.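 The calls were made as follows: active = EC50 no more than a set limit of log units above the highest dose; inactive = the rest.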

This experiment addresses S. pyogenes SKKanGAS, kanamycin survival, BacTiterGlo, 6 h. The experiment is described as follows: S. pyogenes SKKanGAS kanamycin growth inhibitors – SKKanGAS strain, luminescence, dose confirmation, streptokinase promoter inhibitor project, dose response (AID 1902).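 Also: lower survival reflects blocked streptokinase promoter driving kanamycin resistance gene.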
By EC50 is commonly meant the midpoint of the concentration-response curve. Take `CC1=NNC(=O)/C1=C\c1cn(-c2ccccc2)nc1-c1ccc(Cl)cc1`: the EC50 was 5.67 µM. Consider `N#C/C(=C(/O)COc1ccccc1)c1nc2ccccc2s1`, for which the EC50 was 14.5 µM. For `COC(=O)c1c(NC(=O)c2ccn(C)n2)sc2c1CCC2`, the EC50 is > 15 µM (inactive). Regarding `COc1ccc(CN(C)S(=O)(=O)c2nnc(NC(=O)c3ccccc3Br)s2)cc1`, the EC50 is 3.51 µM. `O=C(CSc1nc(-c2ccc(Cl)cc2)[nH]c(=O)n1)Nc1cccc(Cl)c1`: the concentration for a half-maximal effect (EC50) is 2.35 µM. Regarding `Cc1c(C(=O)NNC(=O)c2ccccc2O)oc2ccc(Br)cc12`, the EC50 was > 15 µM (inactive).

As for `CC12CCC(C(=O)Nc3cccc(Cl)c3Cl)([C@H](Br)C1=O)C2(C)C` (some centres not stated), the EC50 is > 15 µM (inactive).

For the compound `O=C(CSc1nnc(CNC(=O)c2ccccc2)o1)NCCc1ccccc1`, the EC50 is > 15 µM (inactive). In the case of `Cc1[nH]cnc1C(=O)N/N=C/c1ccc([N+](=O)[O-])s1` it was 3.73 µM. For `COc1ccc(-c2nc(/C=C3\C(C)=Nc4ccccc43)c(O)o2)cc1`, the EC50 is 3.5 µM. The same measure for `Cc1cc(/C=C2\SC(=O)NC2=O)c(C)n1-c1ccc(N2CCOCC2)cc1`: 1.58 µM; for `COc1ccc(-c2oc3cccnc3c2C#CC2(O)CCCCC2)cc1`: 7.36 µM. On to `COc1ccccc1N1CCN(C(=O)/C=C/c2ccc(C)cc2)CC1`, for which the EC50 was > 15 µM (inactive).

As to `Oc1ccccc1/C=N/NC(=S)NC1CC2CCC1C2` (configuration not stated), the EC50 was 3.74 µM.

Consider `Cc1[nH][nH]c(=O)c1C(c1c(C)[nH][nH]c1=O)c1cn(Cc2ccc(Cl)c(Cl)c2)c2ccccc12`, for which the EC50 is 3.07 µM.

Take `COc1ccc(/C=c2\s/c(=C/C(=O)c3ccc(C)cc3)[nH]c2=O)cc1OC`: the EC50 was 9.28 µM.

With `CCCCC(CC)CN1C(=O)/C(=C/c2ccncc2)SC1=S` (configuration not stated), the EC50 is 2.83 µM. On to `CCCCn1c(SCC(=O)c2ccccc2)nc2c1c(=O)[nH]c(=O)n2C`, for which the EC50 is 3.43 µM. In the case of `O=C(CCc1ccccc1)Nc1nnc(-c2ccc3c(c2)CCCC3)o1`, the EC50 is 1.59 µM. Turning to `O=C(NNC1=C(C(=O)C(F)(F)F)CCC1)c1cccc(Cl)c1`, the EC50 was 0.931 µM. For the compound `CCCCn1c(=O)c(C(=O)NCc2ccccc2)c(O)c2ccccc21`, the EC50 was 6.85 µM. The same measure for `Nc1c(S(=O)(=O)c2cccs2)c2nc3ccccc3nc2n1/N=C/c1cccc(O)c1`: 4.53 µM; for `Cc1cccc(C)c1NC(=O)CN(C)CC(=O)Nc1sc2c(c1C(N)=O)CCC2`: > 15 µM (inactive); for `N#C/C(=C(/O)CCl)c1nc2c(s1)CCc1ccccc1-2`: 12.2 µM. For the compound `Oc1ccc(Cl)cc1-c1cc(-c2cccc(Br)c2)n[nH]1`, the EC50 was 3.62 µM. In the case of `CC[C@H]1OC(=O)[C@H](C)[C@@H](O[C@H]2C[C@@](C)(OC)[C@@H](O)[C@H](C)O2)[C@H](C)[C@@H](O[C@@H]2O[C@H](C)C[C@H](N(C)C)[C@H]2O)[C@](C)(O)C[C@@H](C)[C@@H]2N[C@@H](COCCOC)O[C@H]([C@H]2C)[C@]1(C)O`, the EC50 was below 0.06 µM. Turning to `C=C(C)COc1ccc(-c2nc(N)ncc2-c2ccc(Cl)cc2)c(O)c1`, the half-maximal effective concentration (EC50) was 5.69 µM. Consider `O=C1Nc2ccccc2S/C1=C/Nc1cccc(Cl)c1`, for which the EC50 was 6.77 µM.

In the case of `CC(NC(=O)Cn1c(=O)[nH]c2ccsc2c1=O)C12CC3CC(CC(C3)C1)C2` (configuration not stated), the EC50 is > 15 µM (inactive). With `C/C(=N\NC(=S)NCc1ccccc1)c1cccc(Br)c1`, the EC50 is 5.44 µM. With `O=C(Oc1ccc(NC2=C(Cl)C(=O)c3ccccc3C2=O)cc1)c1ccc([N+](=O)[O-])cc1`, the concentration giving a half-maximal response (EC50) was 7.48 µM.

Take `COCCn1c(SCc2nc3sc(C(=O)OC)c(C)c3c(=O)[nH]2)nc2ccccc21`: the EC50 is 3.54 µM. Regarding `COc1ccccc1-c1cc(-c2ccccc2)nc(SCC(=O)O)c1C#N`, the EC50 was 1.97 µM. For the compound `COc1ccccc1-c1cc(=O)c2c(O)ccc([N+](=O)[O-])c2o1`, the EC50 is 2.56 µM.

On to `O=C(Nc1ccc(Cl)c(Cl)c1)C1CC(=O)N(c2ccc(Br)cc2)C1` (configuration not stated), for which the EC50 is 4.5 µM.

As to `O=c1c(O)c(-c2cccs2)oc2ccccc12`, the EC50 is 3.94 µM. In the case of `COc1ccc(CN(C)S(=O)(=O)c2ccc3c(c2)OCCO3)cc1` it was > 15 µM (inactive). As to `CC(=O)OCC1=C(C(=O)O)N2C(=O)C(NC(=O)C(C)Cn3nc(C)c(Cl)c3C)C2SC1` (configuration not stated), the EC50 is 2.95 µM. Turning to `Fc1ccccc1CNc1cc(Cl)cc(Cl)c1`, the EC50 was 12.5 µM. In the case of `c1ccc2c(c1)ncn2CCCOc1ccc2c(c1)CCC2`, the EC50 is 7.49 µM. In the case of `Cc1cc(Br)cc(/C=N/NC(=O)c2ccc3c(c2)OCO3)c1O`, the EC50 was 1.9 µM. Regarding `C=C(C)C1Cc2c(C)nn(-c3cccc4ccccc34)c2C1` (configuration not stated), the EC50 is 5.89 µM.

As to `Cc1ccc2nc(N3C(=O)C(O)=C(C(=O)c4cc5ccccc5o4)C3c3cccs3)sc2c1` (configuration not stated), the EC50 was 1.22 µM. Take `COc1ccccc1OCC(=O)NNC(=S)NC(=O)c1ccco1`: the EC50 was 2.39 µM. Take `Oc1ccc(/C=N/Nc2nc(N3CCCCCC3)nc(N3CCCCCC3)n2)c(O)c1`: the EC50 is 1.73 µM. For `CC(C)c1c(C(=O)N/N=C/c2cccc(OCc3ccccc3)c2)nnn1-c1nonc1N`, the EC50 was 9.4 µM. For the compound `Oc1c(Br)cc(Br)cc1CNc1cccc2cccnc12`, the EC50 is 4.47 µM. Turning to `O=C1c2ccccc2CCC12N=NCC2c1ccc(Br)cc1` (configuration not stated), the EC50 was 14.8 µM. Regarding `CCCCNc1c(-c2cccc(-c3ccc(OC)cc3)c2)nc2ccc(C)cn12`, the EC50 is 4.05 µM. Turning to `CCc1c(C)nc2cc(-c3ccc(OC)c(OC)c3)nn2c1N1CCC(C)CC1`, the EC50 was 7.56 µM. Turning to `Cc1nn2c(N3CCN(C(=O)c4ccco4)CC3)cc(C(C)(C)C)nc2c1-c1ccccc1`, the EC50 is 6.19 µM. For the compound `O=[N+]([O-])c1ccc(O)c(Nc2ncnc3ccc(Br)cc23)c1`, the EC50 was 3.32 µM. In the case of `Cc1ccc(C(=O)c2c(C)oc3c2C(=O)C(=O)c2ccccc2-3)cc1`, the EC50 is 0.801 µM. As for `O=C(NNC(=S)Nc1ccc(Cl)c(Cl)c1)c1ccccn1`, the EC50 is 1.66 µM. `COc1cccc(C(=O)Oc2ccc(/C=N/Nc3ccc(C(=O)O)cc3)cc2OC)c1`: the EC50 was 6.23 µM. Consider `O=S(=O)(Nc1c(S(=O)(=O)c2ccccc2)c2nc3ccccc3nc2n1C1CCCCC1)c1ccccc1`, for which the EC50 is 2.71 µM. As for `CCC(CC)c1nn2c(N)c(/C=C3\C(C)=Nc4ccccc43)c(=O)nc2s1`, the EC50 is 2.57 µM.

Consider `CC(C)CN(C(=O)COc1ccc(-c2nnco2)cc1)C1CCS(=O)(=O)C1` (configuration not stated), for which the EC50 is > 15 µM (inactive).

Consider `Cc1ccccc1-n1cnc2cc(NCc3cccs3)ccc21`, for which the EC50 was 4.69 µM. With `COc1ccc(CCCC(=O)N/N=C/c2cccc(OC)c2O)cc1C`, the EC50 is 1.66 µM. Consider `CCC(C(=O)NCC1CCCO1)n1nc(C)c2sc3ccccc3c2c1=O` (configuration not stated), for which the EC50 was > 15 µM (inactive). Regarding `CCCOc1ccc(C(=O)NNC(=S)NC(=O)CC)cc1`, the EC50 is 0.431 µM. For the compound `O=C(Nc1nccs1)c1sc2ccccc2c1Cl`, the EC50 is > 15 µM (inactive). Turning to `O=C(Nc1nnc(-c2ccc(Cl)cc2)o1)c1nc2ccccc2s1`, the EC50 was 0.178 µM.

Regarding `O=c1cc(N2CCCCC2)c(-c2ccccc2)nn1Cc1ccc(Cl)cc1Cl`, the EC50 is 3.04 µM. Consider `CCN(CC)c1nc(C(F)(F)F)nc2c1nnn2Cc1ccccc1`, for which the EC50 is 3.62 µM. For the compound `COc1cc(N=c2c([N+](=O)[O-])nn(-c3ccc4c(c3)OCCO4)n2O)cc(OC)c1`, the EC50 is 5.24 µM.
